{"source": "ChEMBL document CHEMBL5653631", "about": "“A Potent and Selective ULK1 Inhibitor Suppresses Autophagy and Sensitizes Cancer Cells to Nutrient Stress” (iScience, 2018)", "key": {"[1]": {"molecular_target": "Serine/threonine-protein kinase D2 (Homo sapiens) (UniProt Q9BZL6)", "sequence (Q9BZL6 whole entry, looked up)": "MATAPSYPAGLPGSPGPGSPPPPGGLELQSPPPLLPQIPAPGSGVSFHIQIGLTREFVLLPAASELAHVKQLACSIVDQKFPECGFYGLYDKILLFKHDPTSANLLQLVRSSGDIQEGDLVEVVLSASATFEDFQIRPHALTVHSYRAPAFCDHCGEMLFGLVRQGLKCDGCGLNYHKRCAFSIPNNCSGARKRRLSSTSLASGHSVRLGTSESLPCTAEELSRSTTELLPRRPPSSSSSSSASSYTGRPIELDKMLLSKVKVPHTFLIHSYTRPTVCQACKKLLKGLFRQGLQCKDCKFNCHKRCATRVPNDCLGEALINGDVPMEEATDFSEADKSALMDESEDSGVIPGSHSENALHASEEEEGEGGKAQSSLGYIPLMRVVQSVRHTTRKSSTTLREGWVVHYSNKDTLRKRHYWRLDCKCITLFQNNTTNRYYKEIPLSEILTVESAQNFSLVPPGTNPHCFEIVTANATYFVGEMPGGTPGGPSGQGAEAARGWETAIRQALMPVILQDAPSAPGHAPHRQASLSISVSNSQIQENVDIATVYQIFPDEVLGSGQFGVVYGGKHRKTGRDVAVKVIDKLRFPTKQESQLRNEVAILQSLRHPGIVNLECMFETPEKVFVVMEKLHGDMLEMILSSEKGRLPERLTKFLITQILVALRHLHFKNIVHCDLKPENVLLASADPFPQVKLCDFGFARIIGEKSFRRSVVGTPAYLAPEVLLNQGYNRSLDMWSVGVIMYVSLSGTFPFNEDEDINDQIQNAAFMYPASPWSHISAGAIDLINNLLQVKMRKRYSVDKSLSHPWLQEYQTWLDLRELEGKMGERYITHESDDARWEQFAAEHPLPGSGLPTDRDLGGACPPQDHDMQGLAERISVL", "assay": "Inhibition of human recombinant PKD2 at 40 nM in presence of ATP by radiometric assay relative to control"}, "[2]": {"molecular_target": "T1, Serine/threonine-protein kinase BRSK1 (Homo sapiens) (UniProt Q8TDC3)", "T1 sequence (whole entry)": "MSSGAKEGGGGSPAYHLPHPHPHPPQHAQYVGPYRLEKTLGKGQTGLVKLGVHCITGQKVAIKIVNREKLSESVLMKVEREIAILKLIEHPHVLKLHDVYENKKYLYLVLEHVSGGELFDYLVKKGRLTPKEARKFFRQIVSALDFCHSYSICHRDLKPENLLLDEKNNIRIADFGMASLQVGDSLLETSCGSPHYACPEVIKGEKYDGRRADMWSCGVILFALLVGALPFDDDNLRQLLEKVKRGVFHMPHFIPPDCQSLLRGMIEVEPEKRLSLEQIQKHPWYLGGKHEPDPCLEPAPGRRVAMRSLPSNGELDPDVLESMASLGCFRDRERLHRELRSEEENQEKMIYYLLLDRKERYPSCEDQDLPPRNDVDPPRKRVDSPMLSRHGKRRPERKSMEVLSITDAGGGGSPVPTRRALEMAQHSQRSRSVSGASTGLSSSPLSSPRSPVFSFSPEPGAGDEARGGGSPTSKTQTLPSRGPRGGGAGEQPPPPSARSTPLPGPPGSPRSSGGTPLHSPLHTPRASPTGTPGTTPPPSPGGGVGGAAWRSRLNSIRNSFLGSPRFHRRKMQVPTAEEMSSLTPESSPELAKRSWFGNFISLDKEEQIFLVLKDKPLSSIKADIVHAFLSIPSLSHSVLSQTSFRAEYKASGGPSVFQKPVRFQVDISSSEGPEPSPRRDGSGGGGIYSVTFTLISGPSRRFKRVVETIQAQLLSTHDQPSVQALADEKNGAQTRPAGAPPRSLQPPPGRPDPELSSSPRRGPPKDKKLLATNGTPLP", "assay": "Inhibition of human recombinant BRSK1 at 40 nM related to control ULK1"}, "[3]": {"molecular_target": "Serine/threonine-protein kinase SIK2 (Homo sapiens) (UniProt Q9H0K1)", "assay": "Inhibition of human recombinant QIK at 40 nM related to control ULK1"}, "[4]": {"molecular_target": "Fibroblast growth factor receptor 4 (Homo sapiens) (UniProt P22455)", "sequence (P22455 22-802 limits assumed)": "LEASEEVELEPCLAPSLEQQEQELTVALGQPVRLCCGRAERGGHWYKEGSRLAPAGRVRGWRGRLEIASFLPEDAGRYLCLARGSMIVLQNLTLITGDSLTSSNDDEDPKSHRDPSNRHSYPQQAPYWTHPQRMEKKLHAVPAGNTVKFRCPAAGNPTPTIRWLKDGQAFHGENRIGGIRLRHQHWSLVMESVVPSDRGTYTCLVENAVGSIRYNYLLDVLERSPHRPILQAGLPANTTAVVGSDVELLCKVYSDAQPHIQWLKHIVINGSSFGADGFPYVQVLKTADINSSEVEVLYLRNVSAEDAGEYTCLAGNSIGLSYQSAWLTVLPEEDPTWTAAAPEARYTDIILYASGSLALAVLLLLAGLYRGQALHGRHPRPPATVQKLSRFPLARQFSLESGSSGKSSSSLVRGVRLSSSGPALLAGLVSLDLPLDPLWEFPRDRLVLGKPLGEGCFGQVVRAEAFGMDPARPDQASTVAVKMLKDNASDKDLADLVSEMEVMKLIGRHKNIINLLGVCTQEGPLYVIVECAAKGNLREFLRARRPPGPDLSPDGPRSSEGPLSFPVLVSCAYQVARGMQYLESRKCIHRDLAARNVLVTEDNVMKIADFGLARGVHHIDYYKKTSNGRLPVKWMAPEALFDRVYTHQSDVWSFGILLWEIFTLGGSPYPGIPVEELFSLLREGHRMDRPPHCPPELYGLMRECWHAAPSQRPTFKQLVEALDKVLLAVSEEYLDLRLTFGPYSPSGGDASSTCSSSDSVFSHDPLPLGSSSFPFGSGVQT", "assay": "Inhibition of human recombinant FGFR4 at 40 nM related to control ULK1"}, "[5]": {"molecular_target": "Fibroblast growth factor receptor 2 (Homo sapiens) (UniProt P21802)", "assay": "Inhibition of human recombinant FGFR2 at 40 nM related to control ULK1"}, "[6]": {"molecular_target": "Mitogen-activated protein kinase 1 (Homo sapiens) (UniProt P28482)", "assay": "Inhibition of human recombinant Erk2 at 500 nM in presence of ATP by radiometric assay relative to control"}, "[7]": {"molecular_target": "Serine/threonine-protein kinase 24 (Homo sapiens) (UniProt Q9Y6E0)", "sequence (Q9Y6E0 whole entry, looked up)": "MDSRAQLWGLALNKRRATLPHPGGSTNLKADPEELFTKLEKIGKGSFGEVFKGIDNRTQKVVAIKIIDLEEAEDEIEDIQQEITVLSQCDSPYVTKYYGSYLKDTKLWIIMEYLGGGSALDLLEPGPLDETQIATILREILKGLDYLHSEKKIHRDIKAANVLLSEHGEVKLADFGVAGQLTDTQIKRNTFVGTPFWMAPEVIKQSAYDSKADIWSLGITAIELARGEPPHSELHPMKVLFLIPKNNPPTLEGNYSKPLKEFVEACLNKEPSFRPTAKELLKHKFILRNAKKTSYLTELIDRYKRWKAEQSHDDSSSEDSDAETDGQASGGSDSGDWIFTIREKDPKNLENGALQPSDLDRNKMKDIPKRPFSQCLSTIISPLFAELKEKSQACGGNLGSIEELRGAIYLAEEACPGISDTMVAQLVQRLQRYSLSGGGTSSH", "assay": "Inhibition of human recombinant MST3 at 500 nM in presence of ATP by radiometric assay relative to control"}, "[8]": {"molecular_target": "T2, Serine/threonine-protein kinase Chk1 (Homo sapiens) (UniProt O14757)", "T2 sequence (whole entry)": "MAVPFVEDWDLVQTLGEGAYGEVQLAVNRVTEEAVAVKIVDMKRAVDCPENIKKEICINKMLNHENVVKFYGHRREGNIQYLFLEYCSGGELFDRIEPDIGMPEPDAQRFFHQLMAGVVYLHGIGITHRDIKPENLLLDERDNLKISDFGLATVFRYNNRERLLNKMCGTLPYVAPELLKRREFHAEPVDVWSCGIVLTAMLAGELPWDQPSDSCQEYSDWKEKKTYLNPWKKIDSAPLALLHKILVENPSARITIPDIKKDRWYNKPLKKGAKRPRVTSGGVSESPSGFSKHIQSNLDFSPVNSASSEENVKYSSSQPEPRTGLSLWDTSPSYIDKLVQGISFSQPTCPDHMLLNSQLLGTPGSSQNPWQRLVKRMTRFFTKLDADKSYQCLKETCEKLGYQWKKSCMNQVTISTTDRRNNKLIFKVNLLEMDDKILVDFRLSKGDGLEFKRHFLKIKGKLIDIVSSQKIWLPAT", "assay": "Inhibition of human recombinant CHK1 at 500 nM related to control ULK1"}, "[9]": {"molecular_target": "Tyrosine-protein kinase Fgr (Homo sapiens) (UniProt P09769)", "assay": "Inhibition of human recombinant FGR at 500 nM in presence of ATP by radiometric assay relative to control"}, "[10]": {"molecular_target": "SRSF protein kinase 2 (Homo sapiens) (UniProt P78362)", "sequence (P78362 whole entry, looked up)": "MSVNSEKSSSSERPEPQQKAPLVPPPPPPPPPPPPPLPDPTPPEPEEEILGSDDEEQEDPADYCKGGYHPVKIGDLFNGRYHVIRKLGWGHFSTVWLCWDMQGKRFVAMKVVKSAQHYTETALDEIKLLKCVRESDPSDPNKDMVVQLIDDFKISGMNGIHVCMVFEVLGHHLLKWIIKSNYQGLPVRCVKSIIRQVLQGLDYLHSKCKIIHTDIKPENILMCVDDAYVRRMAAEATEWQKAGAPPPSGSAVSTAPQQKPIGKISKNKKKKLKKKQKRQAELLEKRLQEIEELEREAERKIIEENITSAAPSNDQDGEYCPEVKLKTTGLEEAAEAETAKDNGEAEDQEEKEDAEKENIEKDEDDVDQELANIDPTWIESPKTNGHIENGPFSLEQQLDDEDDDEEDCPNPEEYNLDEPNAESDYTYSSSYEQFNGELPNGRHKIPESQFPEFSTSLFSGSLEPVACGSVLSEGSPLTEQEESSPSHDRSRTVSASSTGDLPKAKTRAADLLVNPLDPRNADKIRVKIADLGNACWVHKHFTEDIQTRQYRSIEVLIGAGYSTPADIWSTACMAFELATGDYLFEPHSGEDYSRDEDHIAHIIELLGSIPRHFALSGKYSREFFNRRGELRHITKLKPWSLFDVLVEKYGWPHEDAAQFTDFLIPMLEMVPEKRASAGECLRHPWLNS", "assay": "Inhibition of human recombinant SRPK2 at 500 nM in presence of ATP by radiometric assay relative to control"}, "[11]": {"molecular_target": "Calcium/calmodulin-dependent protein kinase type II subunit beta (Homo sapiens) (UniProt Q13554)", "assay": "Inhibition of human recombinant CaMK2b at 500 nM related to control ULK1"}, "[12]": {"molecular_target": "Death-associated protein kinase 1 (Homo sapiens) (UniProt P53355)", "assay": "Inhibition of human recombinant DAPK1 at 500 nM in presence of ATP by radiometric assay relative to control"}, "[13]": {"molecular_target": "T3, Mitogen-activated protein kinase 12 (Homo sapiens) (UniProt P53778)", "T3 sequence (whole entry)": "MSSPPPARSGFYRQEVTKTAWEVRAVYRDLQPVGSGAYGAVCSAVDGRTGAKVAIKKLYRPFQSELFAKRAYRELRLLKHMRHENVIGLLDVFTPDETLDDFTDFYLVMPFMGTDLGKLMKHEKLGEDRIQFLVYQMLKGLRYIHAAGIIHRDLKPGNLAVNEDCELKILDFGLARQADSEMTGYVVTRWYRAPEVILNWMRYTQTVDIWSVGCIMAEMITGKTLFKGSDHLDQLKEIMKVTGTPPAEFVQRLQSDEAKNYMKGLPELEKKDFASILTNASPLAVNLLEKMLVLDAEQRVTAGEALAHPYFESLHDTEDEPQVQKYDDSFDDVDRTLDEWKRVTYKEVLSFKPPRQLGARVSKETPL", "assay": "Inhibition of human recombinant p38gamma at 15 nM in presence of ATP by radiometric assay relative to control"}, "[14]": {"molecular_target": "Ribosomal protein S6 kinase alpha-4 (Homo sapiens) (UniProt O75676)", "assay": "Inhibition of human recombinant MSK2 at 15 nM related to control ULK1"}, "[15]": {"molecular_target": "Insulin-like growth factor 1 receptor (Homo sapiens) (UniProt P08069)", "sequence (P08069 31-736 limits assumed)": "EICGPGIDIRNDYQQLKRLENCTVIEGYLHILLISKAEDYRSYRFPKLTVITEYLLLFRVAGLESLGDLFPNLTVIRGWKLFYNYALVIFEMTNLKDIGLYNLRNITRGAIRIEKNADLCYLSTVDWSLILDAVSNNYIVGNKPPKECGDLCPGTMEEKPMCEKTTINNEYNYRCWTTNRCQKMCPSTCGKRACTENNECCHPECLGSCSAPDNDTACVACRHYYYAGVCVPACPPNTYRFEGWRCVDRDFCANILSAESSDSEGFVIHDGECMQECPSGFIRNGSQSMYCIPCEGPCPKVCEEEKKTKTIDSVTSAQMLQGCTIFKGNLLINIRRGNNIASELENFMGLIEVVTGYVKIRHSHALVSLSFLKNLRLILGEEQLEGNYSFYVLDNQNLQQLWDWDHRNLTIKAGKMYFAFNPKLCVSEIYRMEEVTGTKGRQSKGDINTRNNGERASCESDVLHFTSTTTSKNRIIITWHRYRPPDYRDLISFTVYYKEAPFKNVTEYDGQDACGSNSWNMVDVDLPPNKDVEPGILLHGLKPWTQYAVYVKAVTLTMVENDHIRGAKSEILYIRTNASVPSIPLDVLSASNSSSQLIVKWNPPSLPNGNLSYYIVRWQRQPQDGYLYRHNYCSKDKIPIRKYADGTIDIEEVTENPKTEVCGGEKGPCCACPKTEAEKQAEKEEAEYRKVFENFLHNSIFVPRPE", "sequence (P08069 741-1367 limits assumed)": "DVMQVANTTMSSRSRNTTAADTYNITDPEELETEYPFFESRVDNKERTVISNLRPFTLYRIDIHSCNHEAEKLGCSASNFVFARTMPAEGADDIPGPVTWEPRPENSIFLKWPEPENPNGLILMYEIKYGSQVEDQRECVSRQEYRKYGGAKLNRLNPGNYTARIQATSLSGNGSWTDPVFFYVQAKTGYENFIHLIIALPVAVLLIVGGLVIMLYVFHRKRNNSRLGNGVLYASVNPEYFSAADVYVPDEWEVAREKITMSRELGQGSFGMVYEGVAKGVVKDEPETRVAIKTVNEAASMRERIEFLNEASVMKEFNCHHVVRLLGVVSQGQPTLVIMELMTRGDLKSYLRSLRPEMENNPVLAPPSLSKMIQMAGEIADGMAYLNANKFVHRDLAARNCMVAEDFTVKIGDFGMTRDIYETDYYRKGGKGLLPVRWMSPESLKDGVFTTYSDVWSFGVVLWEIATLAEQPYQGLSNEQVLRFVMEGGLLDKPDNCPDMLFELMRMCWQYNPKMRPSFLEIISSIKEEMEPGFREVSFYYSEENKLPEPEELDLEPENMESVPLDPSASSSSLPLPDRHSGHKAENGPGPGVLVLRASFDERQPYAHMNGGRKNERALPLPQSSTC", "assay": "Inhibition of human recombinant IGF1R at 15 nM in presence of ATP by radiometric assay relative to control"}, "[16]": {"molecular_target": "Serine/threonine-protein kinase MARK2 (Homo sapiens) (UniProt Q7KZI7)", "sequence (Q7KZI7 whole entry)": "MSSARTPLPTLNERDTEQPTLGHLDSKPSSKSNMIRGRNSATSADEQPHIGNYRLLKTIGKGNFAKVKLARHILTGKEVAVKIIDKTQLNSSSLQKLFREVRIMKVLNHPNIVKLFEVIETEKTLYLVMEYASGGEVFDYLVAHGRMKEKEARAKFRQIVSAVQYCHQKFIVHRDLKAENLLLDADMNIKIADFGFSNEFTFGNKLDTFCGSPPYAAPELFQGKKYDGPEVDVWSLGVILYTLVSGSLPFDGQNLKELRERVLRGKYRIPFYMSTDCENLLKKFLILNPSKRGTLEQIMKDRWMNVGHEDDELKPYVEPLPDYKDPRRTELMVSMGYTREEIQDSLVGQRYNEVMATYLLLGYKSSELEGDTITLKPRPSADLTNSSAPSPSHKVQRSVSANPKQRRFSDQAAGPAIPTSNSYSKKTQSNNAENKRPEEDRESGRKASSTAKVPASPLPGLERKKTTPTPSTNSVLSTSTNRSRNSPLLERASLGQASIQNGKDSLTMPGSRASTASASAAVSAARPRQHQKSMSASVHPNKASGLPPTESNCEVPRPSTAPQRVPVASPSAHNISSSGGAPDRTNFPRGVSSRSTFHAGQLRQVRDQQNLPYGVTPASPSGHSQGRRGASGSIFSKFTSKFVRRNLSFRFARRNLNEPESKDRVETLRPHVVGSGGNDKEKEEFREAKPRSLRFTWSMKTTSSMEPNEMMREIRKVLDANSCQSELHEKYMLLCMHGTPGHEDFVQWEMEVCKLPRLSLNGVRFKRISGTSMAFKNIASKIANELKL", "assay": "Inhibition of human recombinant MARK2 at 15 nM in presence of ATP by radiometric assay relative to control"}, "[17]": {"tested_on": "G protein-coupled receptor kinase 7 (Homo sapiens)", "assay": "Inhibition of human recombinant GPRK7 at 15 nM in presence of ATP by radiometric assay relative to control"}, "[18]": {"molecular_target": "Dual specificity tyrosine-phosphorylation-regulated kinase 1B (Homo sapiens) (UniProt Q9Y463)", "assay": "Inhibition of human recombinant DYRK1B at 15 nM in presence of ATP by radiometric assay relative to control"}}, "data": [{"smiles": "O=C(N[C@@H](C1CC1)C(F)(F)F)c1cc(-c2cnn3cc(-c4ccc(F)cc4)cnc23)cs1", "values": [{"measurement": "inhibition", "setting": "[1]", "result": 6, "unit": "%"}, {"measurement": "fold change (FC)", "setting": "[2]", "result": 0.03}, {"measurement": "fold change (FC)", "setting": "[3]", "result": 0.74}, {"measurement": "fold change (FC)", "setting": "[4]", "result": 0}, {"measurement": "fold change (FC)", "setting": "[5]", "result": 0}]}, {"smiles": "CNC(=O)c1ccccc1Oc1nc(Nc2cc(OC)c(OC)c(OC)c2)ncc1Br", "values": [{"measurement": "inhibition", "setting": "[6]", "result": 0, "unit": "%"}, {"measurement": "inhibition", "setting": "[7]", "result": 58, "unit": "%"}, {"measurement": "fold change (FC)", "setting": "[8]", "result": 0.05}, {"measurement": "inhibition", "setting": "[9]", "result": 8, "unit": "%"}, {"measurement": "inhibition", "setting": "[10]", "result": 5, "unit": "%"}, {"measurement": "fold change (FC)", "setting": "[11]", "result": 0}, {"measurement": "inhibition", "setting": "[12]", "result": 0, "unit": "%"}]}, {"smiles": "CC(C)[C@H](NC(=O)c1cc(-c2cnn3cc(-c4ccc(OCCN5CCCCC5)cc4)cnc23)cs1)C(F)(F)F", "values": [{"measurement": "inhibition", "setting": "[13]", "result": 5, "unit": "%"}, {"measurement": "fold change (FC)", "setting": "[14]", "result": 0}, {"measurement": "inhibition", "setting": "[15]", "result": 0, "unit": "%"}, {"measurement": "inhibition", "setting": "[16]", "result": 47, "unit": "%"}, {"measurement": "inhibition", "setting": "[17]", "result": 0, "unit": "%"}, {"measurement": "inhibition", "setting": "[18]", "result": 65, "unit": "%"}]}]}
